Data on three molecules can be found in article PMC6154319, “Intestinal Transport Characteristics and Metabolism of C-Glucosyl Dihydrochalcone, Aspalathin” (Molecules : A Journal of Synthetic Chemistry and Natural …, 2017).

The term Papp A→B denotes the apparent permeability from the apical to the basolateral side of a cell layer. A high value points to ready permeation.

One series is described as follows: in vitro. Conditions: human, Caco-2, Papp (cm/s) a-b × 10^−6. Here is the method:
Validation of the Caco-2 transport experiments required consideration of three parameters, i.e., firstly, to determine the cytotoxic concentrations of synthetic aspalathin, secondly, the concentration of aspalathin required to ensure HPLC detection in the basolateral compartment, and finally, to assess whether the transport of aspalathin is concentration dependent.
Cells were cultured at 37 °C and 5% CO2 in 95% humidified air in Eagle’s Minimum Essential Medium (EMEM) containing sodium […] pyruvate, supplemented with 2 mM L-glutamine, 1% non-essential amino acids and 10% heat inactivated FBS. Cell cultures were split when 70%–80% confluent, using trypsin/ethylenediaminetetraacetic acid (EDTA). The culture medium, pre-warmed to 37 °C, was refreshed every 2–3 days. Cells were seeded at 1 × 10^4 cells/cm^2 and a sub-cultivation ratio of 1:3 was routinely used. Cells were seeded with the addition of 1% penicillin/streptomycin mixture (10,000 units/mL potassium penicillin and 10,000 µg/mL streptomycin sulphate) at 4 × 10^4 cells/cm^2 onto 0.4 µm polycarbonate 6-well inserts with an insert area of 4.52 cm^2. Cells were used for transport experiments when TEER values across wells were >300 Ω, typically 21–23 days post confluence. Only passages 50–60 were used to prevent phenotypic drift.
The cell monolayers were equilibrated briefly with transport buffer, pH 6.0 (HBSS with 2-(N-morpholino) ethanesulphonic acid (MES)) on the apical side and pH 7.4 (HBSS with HEPES) on the basolateral side, to remove traces of the culture media. Following this, transport buffers were added for 30 min prior to the addition of treatment (inhibitors were added during this step when required, as well as during the subsequent treatment incubation step). After equilibration, the plates containing transport medium were incubated for 30 min at 37 °C at 5% CO2 in 95% humidified air and the TEER value of the monolayer determined. […] For basolateral-to-apical compartment studies, 2.4 mL of treatment at the same concentrations in HBSS (pH 7.4), was added to the basolateral compartment.
To assess whether aspalathin was co-transported with glucose, its transport (100 µM) at both high (20.5 mM) and low (5.5 mM) glucose concentrations, mimicking the intestinal lumen glucose concentrations pre- and post-meals, was monitored. This was followed by experiments performed in the presence and absence of SGLT1 (100 µM phloridzin), GLUT2 (100 µM phloretin) and efflux, PgP (100 µM verapamil) inhibitors.
Samples (1.2 mL) were withdrawn from the basolateral or the apical compartment to measure the concentration of aspalathin uptake and efflux, respectively at 0, 0.5, 1, 1.5, and 2 h under sink conditions (the sample aliquot replaced with equal volume of relevant transport buffer). Sample aliquots (350 µL) were frozen in liquid nitrogen after the addition of ascorbic acid (35 µL of 10% solution) and stored at −65 °C until HPLC analysis. Results were corrected for dilution and expressed as cumulative transport (% of initial dose) as a function of time. Papp (cm/s) for bi-directional transport studies was calculated as previously described. Transport of other major flavonoids in the matrices, i.e., nothofagin, the 3-deoxy analogue of aspalathin and its flavone derivatives, orientin and isoorientin, were also determined.
Lucifer yellow (final concentration 0.1 mM) was used as a membrane integrity marker and co-incubated with the compounds and extracts.
HPLC-DAD analysis of samples from the apical and basolateral compartments was performed in duplicate on an Agilent 1200 system as previously described. Basolateral and apical samples taken after 2 h with pure aspalathin were also analysed using LC-MS (parameters described in [42]) to determine whether aspalathin metabolites were formed in the Caco-2 model.
All experiments were performed in triplicate and the data expressed as mean ± SD, unless otherwise indicated.

Series [1] in a line: Acute mouse study, metabolite identification in blood and urine by LC-MS/MS. In kind it is in vivo. The note with it: oral 50 mg/kg aspalathin, urine over 8 h, tentative identification by LC-MS/MS. Here is the method:
An acute mouse study was performed under ethical approval from the Ethics Committee for Research on Animals (ECRA) of the South African Medical Research Council (Ref:07/13). Three 8-week old male C57.BKS mice, obtained from the Primate Unit of the South African Medical Research Council (Tygerberg, South Africa), were housed individually in polycarbonate cages with wired lids and kept in a controlled environment of 23–24 °C, 50% humidity, and a 12 h light/dark cycle. Prior to the study, urine was collected from the fasting mice overnight in a metabolic cage. Baseline fasted blood was collected via tail snip into a heparin tube, snap frozen in liquid nitrogen, and stored at −80 °C. Each mouse received a single dose of synthetic aspalathin (50 mg/kg body weight) dissolved in phosphate-buffered saline (PBS) (5 mg/mL) via orogastric gavage. Blood samples were collected and handled as described for fasting at time 0 (pre-gavage), and 1, 2, 4, 6, and 8 h post-gavage. All the samples were collected into the same heparin tube and kept on ice during the experiment. Urine was collected over the 8-h post-gavage monitoring period and the samples were stored at −80 °C until analysis.
(§1) The frozen whole blood samples, as well as the samples incubated with microsomes and controls, were thawed, extracted by protein precipitation using 0.1% formic acid (FA) in acetonitrile, centrifuged and filtered through 0.22 µm polyvinylidene difluoride (PVDF) filters (Merck Millipore, Frankfurter Straße, Darmstadt, Germany). Frozen whole urine samples were thawed and diluted 5 times in 0.1% aqueous FA. Samples were analysed by LC-MS/MS on an Agilent 1200 Rapid Resolution HPLC system (600 bar, Agilent Technologies) coupled to a 4000 QTRAP® (AB Sciex, Framingham, MA, USA) equipped with a Turbo V™ […]. Filtered samples (10 μL), stored on a sample tray maintained at 8 °C, were injected on a Gemini C6-Phenyl column (150 × 2.0 mm, 3 µm particles) (Phenomenex, Santa Clara, CA, USA) at 40 °C. […]

The next series has as its system mouse liver microsomes. Nature of the series: In vitro incubation of aspalathin in mouse liver microsomes and phosphate buffer. In kind it is in vitro ADME. Here is the method:
Synthetic aspalathin (10 µM) was incubated at 37 °C in a solution containing 1 mg/mL microsomes (male Mouse BALB/c, Xenotech, Kansas city, KS, USA), magnesium chloride (5 mM) and nicotinamide adenine dinucleotide phosphate (NADPH) (1 mM) in phosphate buffer (100 mM, pH 7.4), for 1 h while shaking. A control containing all the sample constituents (not incubated), another containing no NADPH, and another containing only the compound in phosphate buffer were also included and handled similarly to the test sample.
as §1

For the molecule `O=c1cc(-c2ccc(O)c(O)c2)oc2c([C@@H]3O[C@H](CO)[C@@H](O)[C@H](O)[C@H]3O)c(O)cc(O)c12` [Orientin], the Papp A→B at 2 h in “in vitro” turned out to be 1.92 ± 0.2 ×10⁻⁶ cm/s. Eriodictyol-C-glucoside [M1]: the “metabolite present in mouse urine (relative concentrations)” value in series [1] is listed as “identified”. Further, the “product identified after incubation of aspalathin in mouse liver microsomes” value with mouse liver microsomes (aspalathin 10 µM, 1 mg/mL microsomes, NADPH, 37 °C, 1 h) was “identified”. Besides, the “product identified after incubation of aspalathin in phosphate buffer” value with mouse liver microsomes (phosphate buffer pH 7.4) is given as “identified”. As to `O=c1cc(-c2ccc(O)c(O)c2)oc2cc(O)c([C@@H]3O[C@H](CO)[C@@H](O)[C@H](O)[C@H]3O)c(O)c12` [Isoorientin], the Papp A→B at 2 h in the series “in vitro” was found to be 1.69 ± 0.2 ×10⁻⁶ cm/s.
